Results: publication PMC12217481, “Structure and mechanism of taniborbactam inhibition of the cefepime-hydrolyzing, partial R2-loop deletion Pseudomonas-derived cephalosporinase variant PDC-88” (Antimicrobial Agents and Chemotherapy, 2025)

Key:
PDC-88 [1] = biological target: T1, PDC-88 (Pseudomonas aeruginosa, UniProt P24735, DEL316-317/G27D/G391A/T105A/V205L/V356I); format: binding
T1 construct: NdeI 5′-[…]-3ʹ and BamHI 5ʹ-[…]-3ʹ; His tag removed) (N); made in house; host or cells: E. coli BL21-CodonPlus (DE3)-RP, pET24a(+)
Protocol: Circular dichroism (CD) melting curve experiments were conducted using a J-815 spectropolarimeter (Jasco) and a Peltier effect temperature controller. Suprasil quartz cuvettes with a 0.1 cm path length (Hellma Analytics) were used in all experiments. […] Equilibrium constants were calculated, and the melting temperature, Tm, was calculated from equilibrium denaturation data as previously described ([28]).

PDC-3 [2] = biological target: T2, PDC-3 (Pseudomonas aeruginosa, UniProt P24735, T105A); experiment: Thermal denaturation by circular dichroism, PDC-3; format: binding
T2 construct: The PDC-3 expression construct was created in a similar manner but starting with a previously described pBC SK(−) vector; made in house; host or cells: E. coli BL21-CodonPlus (DE3)-RP, pET24a(+)
Protocol: Competitive enzyme inhibitors can increase enzyme thermal stability as a result of binding to the active site.
Circular dichroism (CD) melting curve experiments were conducted using a J-815 spectropolarimeter (Jasco) and a Peltier effect temperature controller. Suprasil quartz cuvettes with a 0.1 cm path length (Hellma Analytics) were used in all experiments. […] Two-state behavior was observed, as indicated by identical curves at each wavelength. Equilibrium constants were calculated, and the melting temperature, Tm, was calculated from equilibrium denaturation data as previously described ([28]).

[3] = test system: isogenic E. coli strains expressing PDC R2-loop deletion variants (PDC-88 to PDC-92); experiment: MIC changes across the five isogenic E. coli R2-loop deletion strains; format: cell-based, Escherichia coli; details: inhibitor at constant 4 µg/mL; R2-loop deletion variant strains
Protocol: Modal broth microdilution MICs (or median broth microdilution MICs where appropriate) were determined in accordance with Clinical and Laboratory Standards Institute (CLSI) M07 guidelines ([43]). Isogenic E. coli DH10B cells expressing the abovementioned plasmid-encoded PDC constructs were used. […] CLSI quality control strains Escherichia coli NCTC 13353, E. coli ATCC 35218, and Klebsiella pneumoniae ATCC 700603 were used during testing ([24]).

PDC-88 [4] = biological target: T1, PDC-88; experiment: Off-rate (koff) by jump-dilution, PDC-88; format: biochemical
Protocol: (§1) The off-rates (koff) were determined using a jump-dilution method ([44]). […] The enzyme was serially diluted to 1 nM, and 100 μM nitrocefin was added to initiate the reaction. Recovery progress covers were recorded at 482 nm. The koff value was determined by fitting the progress curves to a single exponential equation. The half-life was determined by dividing ln(2) by koff.

PDC-3 [5] = biological target: T2, PDC-3; experiment: Competitive inhibition assay with nitrocefin (Ki app, IC50), PDC-3; format: biochemical
Protocol: (§2) β-Lactamase kinetic and inhibitor constants were determined using an Agilent 8453 UV-Visible Spectrophotometer to record progress curves and determine initial rates and other kinetic parameters as appropriate. Reactions were carried out in 1× phosphate-buffered saline (PBS) (pH 7.4) at room temperature in a 0.2 cm path-length quartz cuvette (Hellma Analytics). Reads were taken every 10 s to minimize UV-mediated background hydrolysis.
(§3) Competitive inhibition assays were used to determine IC50 and Ki app. Nitrocefin (a reporter substrate), enzyme, and inhibitor were mixed, and initial velocities were determined. […] Inverse steady-state velocities (1/V0) were plotted against inhibitor concentration ([I]), forming a straight line. The y-intercept of this line was divided by the slope of the line to yield Ki app obs and IC50 values. Apparent Ki values (Ki app) were determined by correcting for the affinity of nitrocefin in the active site using equation 2:
(§4) (2) KI app= KI app{obs/1+[S]/KM NCF

PDC-88 [6] = biological target: T1, PDC-88; experiment: biochemical; format: biochemical
Protocol: as §2, §3, §4

PDC-3 [7] = biological target: T2, PDC-3; experiment: Off-rate (koff) by jump-dilution, PDC-3; format: biochemical
Protocol: as §1

NCCN[C@H]1CC[C@H](CC(=O)N[C@H]2Cc3cccc(C(=O)O)c3OB2O)CC1 [TAN, taniborbactam]
increase of Tm upon addition of inhibitor (PDC-88 [1]; PDC-88): +7 °C | Tm (PDC-88 [1]; PDC-88 with inhibitor, circular dichroism, PDC-88 alone 53°C): 60 °C | increase of Tm upon addition of inhibitor (PDC-3 [2]; PDC-3): +9 °C | Tm (PDC-3 [2]; PDC-3 with inhibitor, circular dichroism, PDC-3 alone 52°C): 61 °C | restoration of FEP activity / susceptibility by inhibitor [3]: restoring FEP activity in all cases | koff (PDC-88 [4]): 0.0007 ± 0.0001 s⁻¹ | Ki app lower compared to avibactam (PDC-3 [5]): 4.1 fold | Ki app lower than TZB (PDC-3 [5]): 40 fold | Ki (PDC-3 [5]; nitrocefin reporter substrate): 660 ± 70 nM | IC50 (PDC-3 [5]; nitrocefin reporter substrate, 5 min preincubation): 16 ± 2 nM | IC50 (PDC-88 [6]): 22 ± 2 nM | Ki (PDC-88 [6]): 610 ± 60 nM | Ki app lower compared to avibactam (PDC-88 [6]; PDC-88): 9 fold | Ki app lower than TZB (PDC-88 [6]; PDC-88): 95 fold | koff (PDC-3 [7]): 0.0012 ± 0.0001 s⁻¹
